The target in one series is T1, human CYP11B2 (Homo sapiens, UniProt P19099).
T1 construct: expressed in transfected cells; host or cells: V79MZh cells
T1 sequence (P19099 25-503): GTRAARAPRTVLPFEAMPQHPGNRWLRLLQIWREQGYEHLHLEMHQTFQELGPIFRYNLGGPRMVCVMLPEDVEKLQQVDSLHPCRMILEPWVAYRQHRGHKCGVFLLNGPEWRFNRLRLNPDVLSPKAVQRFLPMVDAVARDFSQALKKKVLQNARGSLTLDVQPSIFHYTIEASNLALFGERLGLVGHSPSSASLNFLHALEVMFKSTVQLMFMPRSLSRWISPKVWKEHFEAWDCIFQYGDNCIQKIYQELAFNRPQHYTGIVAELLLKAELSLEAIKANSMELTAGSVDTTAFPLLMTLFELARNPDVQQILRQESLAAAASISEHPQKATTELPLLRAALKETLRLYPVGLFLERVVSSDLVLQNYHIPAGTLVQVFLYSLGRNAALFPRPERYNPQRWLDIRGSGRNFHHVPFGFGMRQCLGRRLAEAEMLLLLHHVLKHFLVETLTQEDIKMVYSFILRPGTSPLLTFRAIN
Description: Inhibition of CYP11B2 in V79 MZh cells expressing the enzyme. Format: cell-based. The settings on record: for SF: selectivity factor = IC50 CYP11B1/IC50 CYP11B2: CYP11B2 over CYP11B1; for IC50: substrate deoxycorticosterone, 100 nM. The procedure: (§1) V79MZh cells expressing human CYP11B1 [45] or CYP11B2 [44] were incubated with [^14C]-11-deoxycorticosterone as substrate. The assay was performed as previously described.

A further series has as its target T2, human CYP11B1 (Homo sapiens, UniProt P15538).
T2 construct: expressed in transfected cells; host or cells: V79MZh cells
T2 sequence (P15538 25-503): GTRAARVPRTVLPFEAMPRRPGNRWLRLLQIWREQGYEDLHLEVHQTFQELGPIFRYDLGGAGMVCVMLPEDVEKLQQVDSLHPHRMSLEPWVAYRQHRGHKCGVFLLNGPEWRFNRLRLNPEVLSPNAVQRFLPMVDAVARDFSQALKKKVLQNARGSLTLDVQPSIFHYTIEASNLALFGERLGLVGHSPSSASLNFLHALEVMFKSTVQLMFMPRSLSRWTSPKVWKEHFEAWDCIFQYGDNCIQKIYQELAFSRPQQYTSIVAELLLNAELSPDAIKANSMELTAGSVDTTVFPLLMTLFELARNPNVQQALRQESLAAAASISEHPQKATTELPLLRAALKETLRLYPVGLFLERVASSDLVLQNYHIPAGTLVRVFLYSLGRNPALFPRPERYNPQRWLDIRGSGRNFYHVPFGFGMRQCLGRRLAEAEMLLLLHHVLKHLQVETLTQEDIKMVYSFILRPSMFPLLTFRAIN
Description: Inhibition of CYP11B1 in V79 MZh cells expressing the enzyme. Format: cell-based. The procedure:
as §1

Series [1] has as its target T3, human hepatic enzyme CYP1A2 (Homo sapiens, UniProt P05177).
T3 sequence (P05177 1-516): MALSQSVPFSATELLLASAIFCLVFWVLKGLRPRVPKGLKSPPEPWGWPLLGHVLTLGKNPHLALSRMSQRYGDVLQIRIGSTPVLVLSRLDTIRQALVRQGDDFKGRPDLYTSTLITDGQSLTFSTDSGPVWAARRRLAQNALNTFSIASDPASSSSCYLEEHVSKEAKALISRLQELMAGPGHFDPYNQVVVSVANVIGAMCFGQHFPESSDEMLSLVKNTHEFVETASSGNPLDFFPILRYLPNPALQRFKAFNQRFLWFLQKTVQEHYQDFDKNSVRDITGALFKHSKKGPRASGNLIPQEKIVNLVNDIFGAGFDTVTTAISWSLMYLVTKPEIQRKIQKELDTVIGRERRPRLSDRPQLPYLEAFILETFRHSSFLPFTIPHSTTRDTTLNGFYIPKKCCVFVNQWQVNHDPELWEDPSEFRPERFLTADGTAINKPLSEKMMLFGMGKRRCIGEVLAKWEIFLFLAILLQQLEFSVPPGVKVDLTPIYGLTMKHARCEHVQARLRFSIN
The series is described as follows: Inhibition of human hepatic CYP1A2, recombinant enzyme (Supersomes). Format: biochemical.

The mark [2] stands for this setting: Hamster fibroblasts (V79 MZh) expressing human CYP11B2, read-out: 11B2 IC50.
[3] abbreviates: Hamster fibroblasts (V79 MZh) expressing human CYP11B1, substrate deoxycorticosterone, 100 nM, read-out: 11B1 IC50.
Where [4] appears, read: recombinantly expressed enzyme from baculovirus infected insect microsomes (Supersomes).

Structures are written as SMILES. Where two headings read alike, the source gives them in different places.

As for `CC12CCC(c3cccnc3)=CC1=CCCC2=O` (racemic) [Compound 17, (±)-8a-Methyl-6-pyridin-3-yl-3,7,8,8a-tetrahydro-2H-naphthalen-1-one], the “SF: selectivity factor = IC50 CYP11B1/IC50 CYP11B2” value at human CYP11B2 was found to be 2. Also, the IC50 (as a rule, the concentration needed to halve the response being measured) on human CYP11B2 (setting [2]) amounted to 462 ± 36 nM; on human CYP11B1 (setting [3]), 1020 ± 78 nM.
Regarding `c1cncc(C2CCC3CCCCC3C2)c1` (stereo not drawn) [Compound 1, 3-(Decahydro-naphthalen-2-yl)-pyridine], the “SF: selectivity factor = IC50 CYP11B1/IC50 CYP11B2” value at human CYP11B2 came out at 4. Besides, the IC50 was 157 ± 14 nM at human CYP11B2 (setting [2]) and 611 ± 34 nM at human CYP11B1 (setting [3]).
Consider `O=C1CC2C=C(c3cccnc3)CC2C1` (stereo not drawn) [Compound 2, 5-Pyridin-3-yl-3,3a,4,6a-tetrahydro-1H-pentalen-2-one], for which the “SF: selectivity factor = IC50 CYP11B1/IC50 CYP11B2” value on human CYP11B2 is recorded as 8. Moreover, the values for the IC50 (on human CYP11B2 (setting [2]); at human CYP11B1 (setting [3]); in series [1] (setting [4])) were 34 ± 5 nM, 282 ± 17 nM and above 100000 nM, respectively. For the same compound, the “CYP1A2 inhibition at 2 µM” value in series [1] is on record as “no inhibition”.
Consider `O=C1CC2CC(c3cccnc3)CC2C1` (stereo not drawn) [Compound 3, 5-Pyridin-3-yl-hexahydro-pentalen-2-one], for which the IC50 at human CYP11B2 (setting [2]) amounted to 258 ± 22 nM; on human CYP11B1 (setting [3]) it was 306 ± 25 nM.
Regarding `C=C1CC2C=C(c3cccnc3)CC2C1` (stereo not drawn) [Compound 4, 3-(5-Methylidene-1,3a,4,5,6,6a-hexahydro-pentalen-2-yl)-pyridine], at human CYP11B2, the “SF: selectivity factor = IC50 CYP11B1/IC50 CYP11B2” value was 34. The values for the IC50 (on human CYP11B2 (setting [2]); on human CYP11B1 (setting [3]); in series [1] (setting [4])) were 6 ± 2 nM, 205 ± 12 nM and 2170 ± 97 nM, respectively.
`OC1CC2C=C(c3cccnc3)CC2C1` (stereo not drawn) [Compound 5, 5-Pyridin-3-yl-1,2,3,3a,4,6a-hexahydro-pentalen-2-ol]: the melting point (in general, the temperature, or range, at which the solid turns liquid) is 110 to 112 °C. For the same compound, the “SF: selectivity factor = IC50 CYP11B1/IC50 CYP11B2” value on human CYP11B2 stood at 3. For the same compound, the IC50 at human CYP11B2 (setting [2]) came out at 225 ± 21 nM. Also, the IC50 at human CYP11B1 (setting [3]) stood at 663 ± 27 nM.
Regarding `OC1CC2CC(c3cccnc3)CC2C1` (stereo not drawn) [Compound 6, 5-Pyridin-3-yl-octahydro-pentalen-2-ol], the “SF: selectivity factor = IC50 CYP11B1/IC50 CYP11B2” value at human CYP11B2 came out at 0.4. Further, the half-inhibitory concentration (IC50) at human CYP11B2 (setting [2]) was 347 ± 35 nM; at human CYP11B1 (setting [3]), 133 ± 29 nM.
The like results for `O=C1CCC=C(c2cccnc2)CCC1` [Compound 7, 5-Pyridin-3-yl-cyclooct-4-enone] were, in that order, 4, 205 ± 16 nM and 851 ± 58 nM.
For `O=C1CCCC(c2cccnc2)CCC1` [Compound 8, 5-Pyridin-3-yl-cyclooctanone] the same measures were 3, 443 ± 36 nM and 1350 ± 79 nM.
For `OC1CCC=C(c2cccnc2)CCC1` (stereo not drawn) [Compound 9, 5-Pyridin-3-yl-cyclooct-4-enol] the same measures were 2, 141 ± 11 nM and 348 ± 25 nM.
For `OC1CCCC(c2cccnc2)CCC1` (stereo not drawn) [Compound 10, (endo/exo)-5-Pyridin-3-yl-cyclooctanol], the IC50 on human CYP11B2 (setting [2]) came out at 294 ± 23 nM; on human CYP11B1 (setting [3]), 246 ± 36 nM.
`C1=C(c2cccnc2)CCCCCC1` [Compound 11, 3-Cyclooct-1-enyl-pyridine]: the “SF: selectivity factor = IC50 CYP11B1/IC50 CYP11B2” value on human CYP11B2 turned out to be 2. Also, the concentration for half-maximal inhibition (IC50) on human CYP11B2 (setting [2]) is 81 ± 7 nM; on human CYP11B1 (setting [3]), 195 ± 15 nM; in series [1] (setting [4]), above 100000 nM.
Take `c1cncc(C2CCCCCCC2)c1` [Compound 12, 3-Cyclooctyl-pyridine]: the “SF: selectivity factor = IC50 CYP11B1/IC50 CYP11B2” value at human CYP11B2 is listed as 50. Also, the IC50 was 21 ± 5 nM on human CYP11B2 (setting [2]), 1050 ± 67 nM at human CYP11B1 (setting [3]) and above 100000 nM in series [1] (setting [4]). Moreover, the “CYP1A2 inhibition at 2 µM” value in series [1] is given as “no inhibition”.
The like results for `C1=C(c2cccnc2)CCCCCCCC1` [Compound 13, 3-Cyclodec-1-enyl-pyridine] were, in that order, 12, 21 ± 3 nM, 258 ± 16 nM, above 100000 nM and “no inhibition”.
For `c1cncc(C2CCCCCCCCC2)c1` [Compound 14, 3-Cyclodecyl-pyridine], the “SF: selectivity factor = IC50 CYP11B1/IC50 CYP11B2” value on human CYP11B2 amounted to 40. Moreover, the IC50 at human CYP11B2 (setting [2]) is 22 ± 2 nM; on human CYP11B1 (setting [3]), 872 ± 79 nM; in series [1] (setting [4]), above 100000 nM.
On to `C1=C(c2cccnc2)CCCCCCCCCC1` [Compound 15, 3-Cyclododec-1-enyl-pyridine], for which the IC50 on human CYP11B2 (setting [2]) is 1170 ± 97 nM; on human CYP11B1 (setting [3]), above 10000 nM.
For `c1cncc(C2CCCCCCCCCCC2)c1` [Compound 16, 3-Cyclododecyl-pyridine], the “SF: selectivity factor = IC50 CYP11B1/IC50 CYP11B2” value at human CYP11B2 stood at 3. Moreover, the concentration for half-maximal inhibition (IC50) at human CYP11B2 (setting [2]) is 636 ± 32 nM; on human CYP11B1 (setting [3]), 1770 ± 56 nM.
The like results for `C1=C(c2cccnc2)C2CCC1C2` (stereo not drawn) [Compound 18, 3-Bicyclo[2.2.1]hept-2-en-2-yl-pyridine] were, in that order, 3, 889 ± 57 nM and 2130 ± 113 nM.
Regarding `c1cncc(C2CC3CCC2C3)c1` (stereo not drawn) [Compound 19, (endo/exo)-3-Bicyclo[2.2.1]hept-2-yl-pyridine], the IC50 at human CYP11B2 (setting [2]) came to 99 ± 21 nM; on human CYP11B1 (setting [3]), 137 ± 12 nM; in series [1] (recombinant CYP1A2), 44000 nM; in series [1] (setting [4]), 44430 ± 388 nM.
Regarding `CN1C2C=C(c3cccnc3)CC1CC2` (stereo not drawn) [Compound 20, 8-Methyl-3-pyridin-3-yl-8-aza-bicyclo[3.2.1]oct-2-ene], the IC50 on human CYP11B2 (setting [2]) was 2440 ± 88 nM; at human CYP11B1 (setting [3]), above 5000 nM.
Consider `CN1C2CCC1CC(c1cccnc1)C2` (stereo not drawn) [Compound 21, (endo/exo)-8-Methyl-3-pyridin-3-yl-8-aza-bicyclo[3.2.1]octane], for which the IC50 was 2830 ± 135 nM at human CYP11B2 (11B2 IC50, Hamster fibroblasts (V79 MZh) expressing human CYP11B2) and above 10000 nM against human CYP11B1.
Consider `COc1ccc2cc(-c3cccnc3)ccc2c1` [I, reference compound], for which the IC50 in series [1] (setting [4]) worked out at 41 ± 5 nM.
Take `COC1CCc2cc(-c3cccnc3)ccc2C1` (stereo not drawn) [II, reference compound]: on human CYP11B2, the “SF: selectivity factor = IC50 CYP11B1/IC50 CYP11B2” value is 347. The IC50 worked out at 3 ± 1 nM on human CYP11B2 (setting [2]), 1140 ± 78 nM on human CYP11B1 (setting [3]) and 440 ± 11 nM in series [1] (setting [4]).
For `COc1ccc2c(c1)CC(C)C(c1cccnc1)=C2` (stereo not drawn) [III, reference compound] the same measures were 79, 3 ± 1 nM, 248 ± 19 nM and 741 ± 55 nM.
